This passage reports fraction bound results from PMC5085249, “The Diguanylate Cyclase HsbD Intersects with the HptB Regulatory Cascade to Control Pseudomonas aeruginosa Biofilm and Motility” (PLoS Genetics, 2016).

The assay addresses T1, HsbD (PA3343) (Pseudomonas aeruginosa, UniProt Q9HYQ2).
T1 construct: His-HsbD overexpressed in E. coli BL21(DE3), whole-cell lysate; native protein 389 aa, six predicted TM domains (52-206), GGDEF domain 252-389; tag kept
Kind of assay: DRaCALA (nitrocellulose, […]-labelled ligand). Conditions: 4 nM 32P-c-di-GMP; E. coli whole-cell lysate; 40 mM Tris pH 7.5, 100 mM NaCl, 10 mM MgCl2; allosteric inhibitory I-site; labelled compound. Format: binding.

T1 sequence (Q9HYQ2 entry or part of it): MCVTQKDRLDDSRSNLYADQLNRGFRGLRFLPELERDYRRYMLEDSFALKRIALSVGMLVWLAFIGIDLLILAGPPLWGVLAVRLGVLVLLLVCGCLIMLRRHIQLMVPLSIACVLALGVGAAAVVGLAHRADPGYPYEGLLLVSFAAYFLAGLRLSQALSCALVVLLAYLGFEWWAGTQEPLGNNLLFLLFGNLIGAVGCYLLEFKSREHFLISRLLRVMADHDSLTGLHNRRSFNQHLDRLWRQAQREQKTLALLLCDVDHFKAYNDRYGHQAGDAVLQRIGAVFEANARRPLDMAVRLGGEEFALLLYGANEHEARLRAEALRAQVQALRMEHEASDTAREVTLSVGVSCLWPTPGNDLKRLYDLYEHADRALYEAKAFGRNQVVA

On to `Nc1nc2c(ncn2[C@@H]2O[C@@H]3COP(=O)(O)O[C@H]4[C@@H](O)[C@H](n5cnc6c(=O)[nH]c(N)nc65)O[C@@H]4COP(=O)(O)O[C@H]3[C@H]2O)c(=O)[nH]1` [c-di-GMP], for which the fraction bound entry is given as “Significant c-di-GMP binding was observed with the construct encoding wild-type HsbD”.
